{"source": "patent US20160184274A1", "about": "“Methods for inhibiting mesenchymal phenotype after epithelial-to-mesenchymal transition” (Fibrostatin, S.L., priority 2014, published 2016)", "key": {"[1]": {"test_system": "mesenchymal A549 spheroids", "test": "Spheroid viability / cell death by LDH activity in media", "assay_type": "cell-based, Human", "conditions": "T12 10 μM for the last 2 days of 4-day EMT induction; FIG. 7B", "method": "FIG. 7. T12 disrupts collagen IV network and reduces A549 mesenchymal spheroids viability. A549 spheroids were subjected to EMT induction with TGF-β and TNF-α during 4 days, and treated with T12 (10 μM) or maintained untreated (Cont) for the last 2 days. In A, spheroids were analyzed by immunofluorescence confocal microscopy with anti-α1α2 (IV) antibodies (COL4, white) and DAPI to visualize the cell nuclei (grey). In B, the culture media of the spheroids in A were used for assessing cell death by measuring LDH activity. […] Represented are Means (±SEM).\nFor some purposes, culture media were cleared by centrifugation (500×g, 10 min, room temperature) and LDH activity in supernatants determined with Lactate Dehydrogenase Activity Assay Kit (Sigma-Aldrich).\nThree-dimensional spheroid cultures of A549 cells were obtained using a hanging droplet method (Kelm et al., 2003. Biotechnol. Bioeng. 83: 173-180.; Kumar et al., 2013. PLoS One. 8: e68597). Briefly, cells were grown to approximately 80% confluence on adherent tissue-culture flasks. Then cells were trypsinized, dispersed in DMEM/10% FBS, and counted using an automated cell counter (MOXI® Z, Orflo). The cell suspension was diluted to a 10^6 cells/mL-concentration, and 25 μl of the cell suspension were pipetted onto the underside of a sterile 10-cm tissue culture plate lid. Each lid was loaded with approximately 55 droplets. […]"}, "[2]": {"test_system": "A549 tumors with epithelial phenotype", "conditions": "T12 20 mg/kg/day in drinking water, alone or with doxorubicin 4 mg/kg/week i.p.; previously reported, WO/2014/006020; cited from earlier work"}, "[3]": {"test_system": "A549 cells expressing GPBP-EYFP", "test": "GPBP-induced phenotype transition, Western blot of markers", "assay_type": "cell-based, Human", "conditions": "T12 10 μM, 24 h; FIG. 4", "method": "FIG. 4. T12 inhibits GPBP-induced phenotype transition in A549 cultures. A549 cells expressing either GPBP-EYFP fusion protein or EYFP were cultured during 24 h in the presence (+) or absence (−) of T12 (10 μM.) Then cells were lysed and similar amounts of lysates were analyzed by Western blot with antibodies against the indicated proteins. Loading equivalence was confirmed by tubulin expression analysis in each of the individual experiments (not shown). To generate cells expressing GPBP fused to Enhanced Yellow Fluorescent Protein (GPBP-EYFP) or EYFP, A549 cells were transfected either with pEYFP-N1-GPBP construct or with pEYFP-N1 vector (Clontech), expressing GPBP-EYFP and EYFP, respectively. Transfected cells were selected with 400 mg/L of geniticin and clones were isolated with a High SPEED CELL SORTER MOFLO® (Beckman-Coulter) and further cultured. Recombinant protein expression was assessed by immunofluorescence microscopy and by Western blot with anti-GPBP N27 mouse monoclonal antibodies. For Western blot analysis, cells were lysed in TBS supplemented with 1% Triton X-100, 0.1% SDS, 1 mM PMSF, 10 μg/mL leupeptine and 20 mM NaF during 30 min at 4° C. Lysates were centrifuged (16,000×g, 5 min, 4° C.) and supernatants were collected and protein concentration determined (Bio-Rad Protein Assay). Samples were subjected to reducing SDS-PAGE and electro-transference onto PVDF membrane. […]"}}, "note": "“Also recorded” adds a separate entry of the source.", "data": [{"smiles": "COc1ccc(-c2ccc(-c3cccc(C)c3)c(C)c2)c(CCC(=O)O)c1", "note": "[T12, 3-[4″-methoxy-3,2′-dimethyl-(1,1′;4′,1″)terphenyl-2″-yl] propionic acid]", "values": [{"measurement": "cell viability (LDH activity in culture media)", "setting": "[1]", "result": "reduced cell viability"}, {"measurement": "tumor growth (relative tumor volume)", "setting": "[2]", "result": "required the synergistic action of doxorubicin to efficiently inhibit tumor growth; also recorded: synergistic with doxorubicin"}, {"measurement": "effect on GPBP-EYFP-induced changes of vimentin, phospho p70-S6 kinase and E-cadherin", "setting": "[3]", "result": "counteracted all these regulatory effects"}]}]}
